Experimental data: patent US12661416B2, “Combinations of imaging agent conjugates and application thereof” (Curadel Surgical Innovations, Inc., priority 2023, dated 2026)

Legend:
[1] = Stability in serum; assay type: in vitro ADME
[2] = In vitro stability in warm serum (normalized absorbance / absorption spectra over time); assay type: in vitro ADME; details: compared to ZW800-1
Description: cRGD-ZW700-1c ZW700-1c, and ZW-800-1 are shown in FIG. 1 and are characterized with respect to their optical properties and stability in vitro. Commercial NIR fluorophores, such as IRDye™800-RS (RS-800), IRDye800-CW (CW-800), Cy5.5, and Cy7 have various degrees of sulfonation in order to achieve aqueous solubility.
The normalized absorbance of ZW800-1 and ZW700-1c in 37° C. buffered FBS, pH 7.4 over time from 0 to 60 hours are shown in FIGS. 2-4.

stability in serum [1]	stability (normalized absorbance over time) ([2]; 37° C. buffered FBS, pH 7.4, 0 to 60 hours)	stability over time (changes in absorption spectra during metabolism in warm serum) ([2]; warm serum)	SMILES
stable in serum for days			N=C(N)NCC[C@@H]1NC(=O)[C@H](CCCCN)NC(=O)[C@@H](Cc2ccc(O)cc2)NC(=O)[C@H](C(=O)O)NC(=O)CNC1=O [cRGD]
	extreme stability	high stability	CC1(C)C(/C=C/C(=C/C=C2/N(CCC[N+](C)(C)C)c3ccc(S(=O)(=O)[O-])cc3C2(C)C)c2ccc(CCC(=O)[O-])cc2)=[N+](CCC[N+](C)(C)C)c2ccc(S(=O)(=O)[O-])cc21 [ZW700-1c]
